In ChEMBL document CHEMBL1177708, “Design, synthesis, and biological evaluation of a novel class of gamma-secretase modulators with PPARgamma activity” (J Med Chem, 2010):
Active and inactive are the calls of the source. The rule behind the calls is not given here.

What was measured:
CHO [1] = assay: Cytotoxicity against CHO cells at 60 uM after 24 hrs by Alamar blue assay; format: cell-based, Cricetulus griseus; conditions: chinese hamster
[2] = target: T1, Prostaglandin G/H synthase 2 (Homo sapiens) (UniProt P35354); assay: Inhibition of human recombinant COX2 assessed as residual activity at 10 uM after 5 mins
T1 sequence (whole entry): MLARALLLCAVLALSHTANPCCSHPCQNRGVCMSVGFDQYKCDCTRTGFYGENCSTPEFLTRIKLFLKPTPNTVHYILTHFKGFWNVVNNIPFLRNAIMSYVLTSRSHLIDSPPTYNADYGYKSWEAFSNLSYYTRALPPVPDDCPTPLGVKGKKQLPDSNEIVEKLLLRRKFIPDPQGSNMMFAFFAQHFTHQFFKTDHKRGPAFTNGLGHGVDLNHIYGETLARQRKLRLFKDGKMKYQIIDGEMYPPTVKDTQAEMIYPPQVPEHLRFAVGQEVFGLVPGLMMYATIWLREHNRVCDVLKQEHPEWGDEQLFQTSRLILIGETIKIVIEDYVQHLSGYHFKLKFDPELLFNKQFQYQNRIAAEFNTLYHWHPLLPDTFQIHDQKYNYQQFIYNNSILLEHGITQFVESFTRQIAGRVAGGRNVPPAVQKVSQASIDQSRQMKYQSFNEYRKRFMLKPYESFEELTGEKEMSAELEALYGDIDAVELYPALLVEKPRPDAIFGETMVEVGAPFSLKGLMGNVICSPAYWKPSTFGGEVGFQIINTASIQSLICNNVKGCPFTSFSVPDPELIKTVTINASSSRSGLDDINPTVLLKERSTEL

cells = conditions: CHO, 24 h
Description: Modulation of gamma-secretase-mediated cleavage of human APP expressed in CHO cells with human presenilin-1 assessed as inhibition of amyloid beta42 production after 24 hrs by ELISA

[3] = target: T2, Peroxisome proliferator-activated receptor delta (Homo sapiens) (UniProt Q03181); assay: Agonist activity at human PPARdelta-LBD expressed in COS7 cells co-transfected with Gal4 at 10 uM by luciferase based transactivation assay; format: functional, cell-based; conditions: COS-7
T2 sequence (whole entry): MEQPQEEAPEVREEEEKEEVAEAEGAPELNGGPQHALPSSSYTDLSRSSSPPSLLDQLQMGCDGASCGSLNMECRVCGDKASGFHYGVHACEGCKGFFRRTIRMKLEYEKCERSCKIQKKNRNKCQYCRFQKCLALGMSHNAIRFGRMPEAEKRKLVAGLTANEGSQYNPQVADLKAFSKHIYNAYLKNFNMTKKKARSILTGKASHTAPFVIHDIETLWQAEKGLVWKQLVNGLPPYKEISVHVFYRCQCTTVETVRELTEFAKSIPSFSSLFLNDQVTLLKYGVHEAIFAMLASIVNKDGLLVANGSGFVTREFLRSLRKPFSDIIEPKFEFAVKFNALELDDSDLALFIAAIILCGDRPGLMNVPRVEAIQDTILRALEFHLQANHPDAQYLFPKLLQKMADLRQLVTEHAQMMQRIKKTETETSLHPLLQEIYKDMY

[4] = target: T3, Peroxisome proliferator-activated receptor alpha (Homo sapiens) (UniProt Q07869); assay: Agonist activity at human PPARalpha-LBD expressed in COS7 cells co-transfected with Gal4 at 10 uM by luciferase based transactivation assay; format: functional, cell-based; conditions: COS-7
T3 sequence (whole entry): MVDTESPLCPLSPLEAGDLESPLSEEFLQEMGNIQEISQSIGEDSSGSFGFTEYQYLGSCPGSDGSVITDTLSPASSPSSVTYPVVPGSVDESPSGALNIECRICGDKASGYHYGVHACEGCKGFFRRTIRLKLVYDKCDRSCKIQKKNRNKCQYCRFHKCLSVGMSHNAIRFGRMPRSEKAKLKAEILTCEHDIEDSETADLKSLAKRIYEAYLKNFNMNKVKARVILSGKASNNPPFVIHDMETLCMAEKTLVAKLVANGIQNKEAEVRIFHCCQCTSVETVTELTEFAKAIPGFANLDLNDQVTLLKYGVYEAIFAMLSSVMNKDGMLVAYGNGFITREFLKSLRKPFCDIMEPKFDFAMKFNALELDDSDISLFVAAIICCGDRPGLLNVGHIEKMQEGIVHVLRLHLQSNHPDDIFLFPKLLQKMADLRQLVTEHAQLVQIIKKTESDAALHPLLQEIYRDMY

[5] = target: T4, Prostaglandin G/H synthase 1 (Ovis aries) (UniProt P05979); assay: Inhibition of ovine COX1 assessed as residual activity at 10 uM after 5 mins
T4 sequence (whole entry): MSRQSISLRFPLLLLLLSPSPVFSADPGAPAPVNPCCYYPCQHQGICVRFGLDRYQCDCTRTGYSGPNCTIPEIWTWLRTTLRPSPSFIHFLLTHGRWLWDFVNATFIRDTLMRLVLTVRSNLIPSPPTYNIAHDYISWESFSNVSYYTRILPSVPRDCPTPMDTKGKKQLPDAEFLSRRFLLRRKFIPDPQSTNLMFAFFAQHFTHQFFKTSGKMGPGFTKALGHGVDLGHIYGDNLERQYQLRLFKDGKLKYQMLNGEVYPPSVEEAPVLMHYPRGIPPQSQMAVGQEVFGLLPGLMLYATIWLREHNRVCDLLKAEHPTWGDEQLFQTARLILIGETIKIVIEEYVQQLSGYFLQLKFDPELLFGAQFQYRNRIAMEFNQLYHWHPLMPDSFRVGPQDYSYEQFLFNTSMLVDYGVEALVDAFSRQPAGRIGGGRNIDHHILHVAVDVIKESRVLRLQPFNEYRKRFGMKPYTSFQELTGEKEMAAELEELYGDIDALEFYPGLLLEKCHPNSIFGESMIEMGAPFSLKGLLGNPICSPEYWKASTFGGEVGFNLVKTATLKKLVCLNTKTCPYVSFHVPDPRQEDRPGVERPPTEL

[6] = Modulation of gamma-secretase-mediated cleavage of human APP expressed in CHO cells with human presenilin-1 assessed as activation of amyloid beta38 production after 24 hrs by ELISA; format: cell-based
[7] = target: T5, Peroxisome proliferator-activated receptor gamma (Homo sapiens) (UniProt P37231); assay: Agonist activity at human PPARgamma-LBD expressed in COS7 cells co-transfected with Gal4 at 10 uM by luciferase based transactivation assay; format: functional, cell-based; conditions: COS-7
T5 sequence (whole entry): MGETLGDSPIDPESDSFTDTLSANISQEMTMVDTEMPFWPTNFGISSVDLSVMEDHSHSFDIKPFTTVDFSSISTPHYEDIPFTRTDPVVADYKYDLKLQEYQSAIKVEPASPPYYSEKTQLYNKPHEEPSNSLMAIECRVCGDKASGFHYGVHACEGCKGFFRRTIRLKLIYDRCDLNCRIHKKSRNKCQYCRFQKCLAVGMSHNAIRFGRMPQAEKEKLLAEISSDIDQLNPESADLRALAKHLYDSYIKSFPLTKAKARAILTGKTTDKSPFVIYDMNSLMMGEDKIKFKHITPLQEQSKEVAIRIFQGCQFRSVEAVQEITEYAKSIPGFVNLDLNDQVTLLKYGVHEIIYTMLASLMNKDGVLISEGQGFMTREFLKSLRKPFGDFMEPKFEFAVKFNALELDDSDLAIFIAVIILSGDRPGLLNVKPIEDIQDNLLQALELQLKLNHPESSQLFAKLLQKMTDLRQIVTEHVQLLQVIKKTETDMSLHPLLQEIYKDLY

[8] = target: T5, Peroxisome proliferator-activated receptor gamma (Homo sapiens); assay: Agonist activity at human PPARgamma-LBD expressed in COS7 cells co-transfected with Gal4 at 10 uM by luciferase based transactivation assay; conditions: COS-7
CHO [9] = assay: Modulation of gamma-secretase-mediated notch signaling expressed in CHO cells transfected with Gal4-DNA-binding/VP16 transactivation domain assessed as reduction of reporter activity at 0.5 uM after 24 hrs; format: cell-based
[10] = target: T5, Peroxisome proliferator-activated receptor gamma (Homo sapiens); assay: Agonist activity at human PPARgamma-LBD expressed in COS7 cells co-transfected with Gal4 at 20 uM by luciferase based transactivation assay; format: functional, cell-based; conditions: COS-7
[11] = target: T5, Peroxisome proliferator-activated receptor gamma (Homo sapiens); assay: Agonist activity at human PPARgamma-LBD expressed in COS7 cells co-transfected with Gal4 at 6 uM by luciferase based transactivation assay; format: functional, cell-based; conditions: COS-7
CHO [12] = assay: Cytotoxicity against CHO cells at 40 uM after 24 hrs by Alamar blue assay; format: cell-based, Cricetulus griseus; conditions: chinese hamster
[13] = target: T6, Peroxisome proliferator-activated receptor gamma (Homo sapiens, UniProt P37231); assay: Agonist activity at human PPARgamma-LBD expressed in COS7 cells co-transfected with Gal4 by luciferase based transactivation assay; format: functional, cell-based, COS-7
T6 sequence (P37231 whole entry): T5 sequence (whole entry)

CHO [14] = assay: Modulation of gamma-secretase-mediated notch signaling expressed in CHO cells transfected with Gal4-DNA-binding/VP16 transactivation domain assessed as reduction of reporter activity at 5 to 40 uM after 24 hrs; format: cell-based
[15] = target: T5, Peroxisome proliferator-activated receptor gamma (Homo sapiens); assay: Agonist activity at human PPARgamma-LBD expressed in COS7 cells co-transfected with Gal4 by luciferase based transactivation assay relative to pioglitazone; format: functional, cell-based; conditions: COS-7
[16] = target: T7, Prostaglandin G/H synthase 1 (Ovis aries, UniProt P05979)
T7 sequence (P05979 whole entry): T4 sequence (whole entry)
Description: Inhibition of ovine COX1 after 5 mins

[17] = target: T7, Prostaglandin G/H synthase 1; remark: listed apart in the source
Description: Inhibition of ovine COX1 after 5 mins

In the case of `CCCC[C@@H](Sc1nc(OCCc2ccccc2)cc(OCCc2ccccc2)n1)C(=O)O`, the Activity (CHO [1]) is reported as “Non-toxic”, the Activity [2] is reported as 98.5% and the IC50 (cells) is reported as 21.5 µM. For the same compound, the Activity [3] was “inactive”, the Activity [4] was “inactive” and the Activity [5] was 73.9%. For the same compound, the EC50 [6] was 8.4 µM and the Activity [7] was 22%.

For `O=C(O)C(Sc1nc(OCCc2ccccc2)cc(OCCc2ccccc2)n1)c1ccccc1` (stereo not given), the Activity (CHO [1]) was “Non-toxic”, the Activity [2] was 86% and the Activity [8] was “inactive”. The IC50 (cells) was 29.3 µM, the Activity [3] was “inactive” and the Activity [4] was “inactive”. The Activity [5] was 72.2% and the EC50 [6] was 12.8 µM.

With `CC(C)C[C@H](NC(=O)[C@H](Cc1ccccc1)C[C@@H](O)[C@H](Cc1ccccc1)NC(=O)OC(C)(C)C)C(=O)N[C@@H](Cc1ccccc1)C(N)=O` the Activity (CHO [9]) was “Active”.

With `CCCCC(Sc1nc(OCCc2ccc(OC)cc2)cc(OCCc2ccc(OC)cc2)n1)C(=O)O` (stereo not given) the Activity (CHO [1]) was “Non-toxic”, the Activity [2] was 94.6% and the IC50 (cells) was 19.3 µM. For the same compound, the Activity [3] was “inactive”, the Activity [4] was “inactive” and the Activity [5] was 72.8%. It also gave an EC50 [6] of 6.2 µM and an Activity [7] of 23%.

In the case of `CCCCC(Sc1nc(OCc2ccccc2)cc(OCc2ccccc2)n1)C(=O)O` (stereo not given), the Activity (CHO [1]) is reported as “Non-toxic”, the Activity [2] is reported as 61.6% and the IC50 (cells) is reported as 25.2 µM. For the same compound, the Activity [3] was “inactive”, the Activity [4] was “inactive” and the Activity [5] was 88.9%. It also gave an EC50 [6] of 24.2 µM and an Activity [10] of 31%.

For `CCCCC(Sc1nc(OCCc2ccc([N+](=O)[O-])cc2)cc(OCCc2ccc([N+](=O)[O-])cc2)n1)C(=O)O` (stereo not given), the Activity (CHO [1]) was “Non-toxic”, the Activity [2] was 91.6% and the IC50 (cells) was 31.2 µM. The Activity [3] was “inactive”, the Activity [4] was “inactive” and the Activity [11] was 33%. The Activity [5] was 82.1%.

For `CCCCC(Sc1nc(OCCc2ccsc2)cc(OCCc2ccsc2)n1)C(=O)O` (stereo not given), the Activity (CHO [1]) was “Non-toxic”, the Activity [2] was 102% and the IC50 (cells) was 37.7 µM. For the same compound, the Activity [3] was “inactive”, the Activity [4] was “inactive” and the Activity [5] was 76.6%. It also gave an EC50 [6] of 17.5 µM and an Activity [10] of 32%.

In the case of `CCCCC(Sc1nc(OCCc2ccc(C(F)(F)F)cc2)cc(OCCc2ccc(C(F)(F)F)cc2)n1)C(=O)O` (stereo not given), the Activity (CHO [1]) is reported as 25%, the Activity (CHO [12]) is reported as “Non-toxic” and the Activity [2] is reported as 69%. For the same compound, the EC50 [13] was 11 µM, the IC50 (cells) was 6 µM and the Activity [3] was “inactive”. For the same compound, the Activity [4] was “inactive”, the Activity (CHO [14]) was “inactive” and the Emax [15] was 112%. The Activity [5] was 54.4%, the EC50 [6] was 1.8 µM and the IC50 [16] was 16.9 µM.

In the case of `CCCCC(Sc1nc(OCCC2CCCCCC2)cc(OCCC2CCCCCC2)n1)C(=O)O` (stereo not given), the Activity (CHO [1]) is reported as “Non-toxic”, the Activity [2] is reported as 50.1% and the Activity [8] is reported as “inactive”. For the same compound, the IC50 (cells) was 11.3 µM, the Activity [3] was “inactive” and the Activity [4] was “inactive”. For the same compound, the Activity [5] was 56.1% and the EC50 [6] was 1.9 µM.

In the case of `C[C@@H](C(=O)O)c1ccc(-c2ccccc2)c(F)c1` [TARENFLURBIL], the IC50 (cells) is reported as 305 µM and the IC50 [17] is reported as “Not Active”.
